Measurements reported in the NIST ThermoML archive (doi:10.1021/je9006629).

Key:
[1] = Liquid; for Normal boiling temperature: Distillation
[2] = refractive index (Na D-line) (dimensionless); xn = mol fraction of the nth substance listed; details: 293.15 K, 101 kPa, Liquid, Standard Abbe refractometry

CCCCO [butan-1-ol]
[1]
Details | vapor or sublimation pressure [kPa]
356.35 K | 25.3
359.45 K | 29.3
362.95 K | 33.5
368.6 K | 42.8
373.45 K | 52.5
373.85 K | 53.3
377.3 K | 61.2
381.9 K | 72.8
386.05 K | 84.9
387.75 K | 91.3
391.95 K | 105.3
395.8 K | 120.1

Details | Normal boiling temperature [°C]
[1] | 117.80

CCCCO [butan-1-ol] + CCCCCCC
[2]
Details | refractive index
x1 = 0.1121 | 1.3889
x1 = 0.1897 | 1.3898
x1 = 0.2845 | 1.3909
x1 = 0.3707 | 1.3919
x1 = 0.4655 | 1.393
x1 = 0.5 | 1.3934
x1 = 0.5862 | 1.3944
x1 = 0.681 | 1.3955
x1 = 0.7586 | 1.3964
x1 = 0.8276 | 1.3972
x1 = 0.9224 | 1.3983
x1 = 1 | 1.3992

CCCCCCC [heptane]
[1]
Details | vapor or sublimation pressure [kPa]
332.9 K | 27.1
335.2 K | 29.9
336.85 K | 32.3
340.55 K | 36.9
343.75 K | 41.3
348.55 K | 48.9
351.45 K | 53.3
351.5 K | 53.3
352.35 K | 55.3
357.25 K | 65.3
363.15 K | 78.7
368.45 K | 91.3
368.55 K | 92.7
371.35 K | 100.8
374 K | 108.8

Details | Normal boiling temperature [°C]
[1] | 98.50

CCCCCCC [heptane] + CCCCCO
Details | refractive index
[2], x2 = 0 | 1.3876

CCCCCCC [heptane] + CCCCO
Details | refractive index
[2], x2 = 0 | 1.3876

CCCCCO [pentan-1-ol]
[1]
Details | vapor or sublimation pressure [kPa]
379.35 K | 31.2
382.4 K | 35.3
385.65 K | 40
390.75 K | 49.2
393.2 K | 53.3
394.7 K | 56.9
400.05 K | 69.3
404.6 K | 81.3
408.15 K | 91.3
409 K | 94.5
411.35 K | 101.9
414.65 K | 113.3

Details | Normal boiling temperature [°C]
[1] | 138.0

CCCCCO [pentan-1-ol] + CCCCCCC
[2]
Details | refractive index
x1 = 0.0755 | 1.3893
x1 = 0.1601 | 1.3912
x1 = 0.2844 | 1.394
x1 = 0.3511 | 1.3955
x1 = 0.4622 | 1.398
x1 = 0.5821 | 1.4007
x1 = 0.6845 | 1.403
x1 = 0.7732 | 1.4051
x1 = 0.8978 | 1.4078
x1 = 1 | 1.4101
